Measured values reported in patent US7658937B2, “Anthraquinones and process for the preparation and method of use thereof” (Board of Trustees of Michigan State University, priority 2004, dated 2010).

Experiments:
[1] = test system: B. malayi Microfilaria; test: Antifilarial activity against microfilaria at 5 ppm (Example 3); assay type: cell-based, Brugia malayi
[2] = test system: female B. malayi adult worms; test: Antifilarial activity against female adult worms at 5 ppm (Example 3); assay type: cell-based, Brugia malayi; details: monitored for 20 days
Protocol: (§1) Live adult male and female B. malayi were obtained from John McCall, University of Georgia, Athens, Ga. (NIH Subcontract). Adult worms were transferred to 6 well plates (3 worms, male or female per well) containing fresh RPMI 1640 culture medium supplemented with L-glutamine and penicillin/streptomycin. Anthraquinones were dissolved separately in 100% DMSO (4mg/ml) and diluted with RPMI media to obtain a final concentration of 5 ppm. Duplicate control groups received 2.5% DMSO or no DMSO. Every 48 h, the medium from each well was removed and replaced with fresh RPMI with or without drug in DMSO. The movement and mortality of the filarial were monitored every 24 h for 20 days. All B. malayi worms in control wells were fully motile throughout the study and the worms treated with anthraquinones were dead.

[3] = test system: adult female filarial (Brugia malayi) worms; test: Mortality and inhibition of motility of adult female filarial worms at 5 ppm (Example 2); assay type: cell-based; details: for time to 100% mortality: adult female worms
From the text: (§2) A collection of 100 adult female Brugia malayi were obtained through an NIH subcontract from Dr. John McCall, University of Georgia in order to test the efficacy of anthraquinones as antifilarial agents. Three worms per well were transferred to 6 well plates containing fresh RPMI 1640 culture medium supplemented with L-glutamine and penicillin/streptomycin. […] Duplicate control groups received 2% DMSO or no DMSO. The medium was removed and replaced with fresh RPMI with or without drug in DMSO every 48 h. The movement and viability of the adult worms were monitored every 24 h till 10 days. The B. malayi worms in control wells were fully motile till the end of 10th day and the worms treated with anthraquinones were dead.
The anthraquinones A, B, D, E, F, J, Q and R, selected randomly, were assayed against adult female filarial (Brugia malayi) worms for mortality and inhibition of motility. […] Other anthraquinones tested gave 100% mortality between 3-10 days (Table 3)

[4] = test system: male B. malayi adult worms; test: Antifilarial activity against male adult worms at 5 ppm (Example 3); assay type: cell-based, Brugia malayi; details: monitored for 20 days
Protocol: as §1

[5] = test system: adult female and male B. malayi; test: Morphology of H & E stained sections of killed adult worms (FIGS. 6-9); assay type: cell-based, Brugia malayi; details: killed by 5 ppm, H & E stain
From the text: FIG. 6 is a cross-sectional view of H & E stained normal control adult female Brugia malayi. Normal duplicate intrauterine structures contains many well-formed microfilaria larvae that have not yet been released from the uterus. Magnification×400. Calibration mark indicates 100 microns in FIGS. 6-9).
FIG. 7 is a longitudinal sectional view of normal adult male B. malayi. […] Magnification×40.

[6] = test system: B. Malayi adult worms; test: Dose response of active anthraquinones against adult worms (50 to 3.12 ppm); assay type: cell-based, Brugia malayi
From the text: as §2
Te assay was repeated with anthraquinones B, F, J and R since they killed the worms quickly compared to the other anthraquinones tested.

[7] = test system: Schistosoma mansoni; details: naturally occurring anthraquinone from daylily roots; Cichewicz et al. 2002; cited from earlier work
[8] = test system: human filarial parasite, B.malayi; test: Activity of daylily anthraquinone against human filarial parasite; set-up: species or system Brugia malayi

| SMILES | 100% Mortality of Microfilaria (Days)* [1] | 100% Mortality of female B. malayi [2] [days] | 100% Mortality of B. Malayi ([3]; adult worms) [days] | also measured |
| --- | --- | --- | --- | --- |
| O=C1c2cccc(O)c2C(=O)c2c1ccc(O)c2O [Anthraquinone I, 1,2,8-Trihydroxy anthraquinone] | 3 days | 14 | 14 | – |
| O=C1c2ccccc2C(=O)c2c1ccc(O)c2O [Anthraquinone A, 1,2-Dihydroxy anthraquinone] | 3 days | 5 | 11 | – |
| Cc1c(O)c(O)cc2c1C(=O)c1ccccc1C2=O [Anthraquinone C, 1-Methyl-2,3-dihydroxy anthraquinone] | 3 days | 7 | 7 | – |
| O=C1c2ccc(O)c(O)c2C(=O)c2cccc(O)c21 [Anthraquinone H, 1,2,5-Trihydroxy anthraquinone] | 3 days | 9 | 9 | – |
| O=C1c2cccc(O)c2C(=O)c2c(O)ccc(O)c21 [Anthraquinone M, 1,4,8-Trihydroxy anthraquinone] | 5 days | 9 | 9 | – |
| Cc1cc2c(c(O)c1O)C(=O)c1ccccc1C2=O [Anthraquinone B, 1,2-Dihydroxy-3-methyl anthraquinone] | 3 days | 5 | 5 | 100% Mortality of male B. malayi [4]: 6 days; morphology of adult female B. malayi, cross-section [5]: disruption of the stable cuticle and hypodermal regions, along with disorganization of the intrauterine microfilariae; morphology of adult male B. malayi, longitudinal section [5]: marked loss of cellularity in hypodermal and deeper structures; 100% Mortality of B. Malayi ([6]; 3.125 ppm): 6 days; 100% Mortality of B. Malayi ([6]; 6.25 ppm): 5 days; 100% Mortality of B. Malayi ([6]; 12.5 ppm): 4 days; 100% Mortality of B. Malayi ([6]; 25 ppm): 3 days; 100% Mortality of B. Malayi ([6]; 50 ppm): 1 days; time to 100% mortality [3]: 24 h |
| COc1c(C)cc2c(c1OC)C(=O)c1ccccc1C2=O [Anthraquinone P, 1,2-Dimethoxy-3-methyl anthraquinone] | No Morality | 11 | 11 | – |
| Cc1cc2c(c(O)c1O)C(=O)c1c(O)cccc1C2=O [Anthraquinone J, 1,2,8-Trihydroxy-3-methyl anthraquinone] | 3 days | 5 | 5 | 100% Mortality of male B. malayi [4]: 5 days; activity against Schistosoma mansoni [7]: significant activity; activity against human filarial parasite B.malayi [8]: active; 100% Mortality of B. malayi (Days) ([6]; 3.125 ppm): No Mortality; 100% Mortality of B. Malayi ([6]; 6.25 ppm): 5 days; 100% Mortality of B. Malayi ([6]; 12.5 ppm): 4 days; 100% Mortality of B. Malayi ([6]; 25 ppm): 3 days; 100% Mortality of B. Malayi ([6]; 50 ppm): 2 days; time to 100% mortality [3]: 48 h |
| O=C1c2ccccc2C(=O)c2c(O)ccc(O)c21 [Anthraquinone E, 1,4-Dihydroxy anthraquinone] | No Mortality | 10 | 10 | – |
| COc1cc2c(c(C)c1OC)C(=O)c1c(O)cccc1C2=O [Anthraquinone S, 1-Methyl-2,3-dimethoxy-8-hydroxy anthraquinone] | No Mortality | 9 | 9 | activity ([3]; adult worms, at 9 days): 50% |
| O=C1c2cc(O)c(O)cc2C(=O)c2c(O)cccc21 [Anthraquinone G, 2,3,5-Trihydroxy anthraquinone] | 3 days | 5 | 5 | – |
| COc1c(C)cc2c(c1O)C(=O)c1ccccc1C2=O [Anthraquinone O, 1-Hydroxy-2-methoxy-3-methyl anthraquinone] | No Mortality | – | – | 100% Mortality of female B. malayi (Days) [2]: No Mortality; 100% Mortality of B. malayi (Days) ([3]; adult worms): No activity |
| O=C1c2cc(O)cc(O)c2C(=O)c2cccc(O)c21 [Anthraquinone L, 1,3,5-Trihydroxy anthraquinone] | 3 days | 7 | 7 | – |
| Cc1c(O)c(O)cc2c1C(=O)c1c(O)cccc1C2=O [Anthraquinone K, 1-Methyl-2,3,8-trihydroxy anthraquinone] | 1 days | 3 | 3 | 100% Mortality of male B. malayi [4]: 5 days |
| O=C1c2ccccc2C(=O)c2c1cc(O)c(O)c2O [Anthraquinone F, 1,2,3-Trihydroxy anthraquinone] | 3 days | 5 | 5 | 100% Mortality of B. Malayi ([6]; 3.125 ppm): 5 days; 100% Mortality of B. Malayi ([6]; 6.25 ppm): 5 days; 100% Mortality of B. Malayi ([6]; 12.5 ppm): 4 days; 100% Mortality of B. Malayi ([6]; 25 ppm): 4 days; 100% Mortality of B. Malayi ([6]; 50 ppm): 2 days |
| O=C1c2cc(O)c(O)c(O)c2C(=O)c2cccc(O)c21 [Anthraquinone N, 1,2,3,-5-Tetrahydroxy anthraquinone] | 3 days | 5 | 5 | 100% Mortality of male B. malayi [4]: 6 days |
| COc1c(C)cc2c(c1O)C(=O)c1c(O)cccc1C2=O [Anthraquinone Q, 1,8-Dihydroxy-2-methoxy-3-methyl anthraquinone] | No Mortality | – | – | 100% Mortality of female B. malayi (Days) [2]: No Mortality; 100% Mortality of B. malayi (Days) ([3]; adult worms): No activity |
| COc1cccc2c1C(=O)c1c(cc(C)c(OC)c1O)C2=O [Anthraquinone R, 1-Hydroxy-2,8-dimethoxy-3-methyl anthraquinone] | No Mortality | 7 | 7 | 100% Mortality of B. malayi (Days) ([6]; 3.125 ppm): No Mortality; 100% Mortality of B. Malayi ([6]; 6.25 ppm): 8 days; 100% Mortality of B. Malayi ([6]; 12.5 ppm): 4 days; 100% Mortality of B. Malayi ([6]; 25 ppm): 2 days; 100% Mortality of B. Malayi ([6]; 50 ppm): 1 days; time to 100% mortality [3]: 24 h |
| O=C1c2ccccc2C(=O)c2c(O)cc(O)cc21 [Anthraquinone D, 1,3-Dihydroxy anthraquinone] | No Mortality | – | – | 100% Mortality of female B. malayi (Days) [2]: No Mortality; 100% Mortality of B. malayi (Days) ([3]; adult worms): No activity |
| CCCSc1ccc2nc(NC(=O)OC)[nH]c2c1 [Albendazole, reference compound] | No Mortality | 16 | 16 | 100% Mortality of male B. malayi [4]: 9 days |
